Assay results published in patent US9428499B2, “Heterocyclyl compounds as MEK inhibitors” (LUPIN LIMITED, priority 2012, dated 2016).

Assays:
ERK phosphorylation = assay: Analysis of ERK phosphorylation (Alphascreen SureFire Phospho-ERK 1/2); type: cell-based, human and mouse; conditions: cells treated for 1 h; human melanoma cells, human and mouse colon cancer cells; read-out: Minimum concentration (nM) required for ≧80% inhibition of pERK
Experimental: This assay was carried out with human melanoma cells, human and mouse colon cancer cells. Cells were treated for 1 h with various concentrations of test compounds. ERK phosphorylation analysis was performed using the Alphascreen SureFire Phospho-ERK 1/2 Kit (Perkin Elmer), by following the manufacturer's instructions. % inhibition of ERK phosphorylation was determined as: 100−{(RFU test−RFU lysis buffer control)/(RFU vehicle treated control−RFU lysis buffer control)}×100. Percentage inhibition at concentrations of 0.01 nM, 0.03 nM, 0.1-0.9 nM, 1 nM to 3 nM, 4-100 nM, and >100 nM, for the stated examples is setworth here. The percentage inhibition at the above depicted concentrations for the compounds stated are given in the following groups.

[1] = tested on: MEK phosphorylation (S218 and S222); assay: Analysis of B-Raf-mediated MEK phosphorylation (Alphascreen SureFire Phospho-MEK); type: cell-based, human; conditions: read-out: % Inhibition of MEK phosphorylation, human melanoma cells, 1 h, read-out: % Inhibition of MBK phosphorylation; for inhibition at 0.001 µM: 1 nM; for inhibition at 0.01 µM: 10 nM; for inhibition at 0.1 µM: 100 nM
Experimental: This assay was carried out with human melanoma cells. Cells were treated for 1 h with various concentrations of test compounds. MEK phosphorylation (S218 and S222) analysis was performed using the Alphascreen SureFire Phospho-MEK Kit (Perkin Elmer), by following the manufacturer's instructions. % inhibition of […] phosphorylation was determined as: 100−{(RFU test−RFU lysis buffer control)/(RFU vehicle treated control−RFU lysis buffer control)}×100.

SMILES	IC80 (ERK phosphorylation) [nM]	inhibition at 0.001 µM [1] [%]	inhibition at 0.01 µM [1] [%]	inhibition at 0.1 µM [1] [%]
Cc1c(=O)n(C)c(Nc2ccc(I)cc2F)c2c(=O)n(C)c(=O)n(-c3cccc(OCC(N)=O)c3)c12 [Compound 57, 2-(3-(5-((2-fluoro-4-iodophenyl)amino)-3,6,8-trimethyl-2,4,7-trioxo-3,4,6,7-tetrahydropyrido[4,3-d]pyrimidin-1(2H)-yl)phenoxy)acetamide]	1 to 3	63.3	76.4	83
Cc1c(=O)n(C)c(Nc2ccc(I)cc2F)c2c(=O)n(C3CC3)c(=O)n(-c3cccc(C4(C(N)=O)CC4)c3)c12 [Compound 78, 1-(3-(3-cyclopropyl-5-((2-fluoro-4-iodophenyl)amino)-6,8-dimethyl-2,4,7-trioxo-3,4,6,7-tetrahydropyrido[4,3-d]pyrimidin-1(2H)-yl)phenyl)cyclopropanecarboxamide]	0.1 to 0.9	42.6	56.7	75.4
Cc1c(=O)n(C)c(Nc2ccc(I)cc2F)c2c(=O)[nH]c(=O)n(-c3cccc(C(=O)NC4CC4)c3)c12 [Compound 2, N-cyclopropyl-3-(5-((2-fluoro-4-iodophenyl)amino)-6,8-dimethyl-2,4,7-trioxo-3,4,6,7-tetrahydropyrido[4,3-d]pyrimidin-1(2H)-yl)benzamide]	0.01	72.2	93.4	96.4
Cc1c(=O)n(C)c(Nc2ccc(I)cc2F)c2c(=O)n(C3CC3)c(=O)n(-c3cccc(OCC(N)=O)c3)c12 [Compound 35, 2-(3-(3-cyclopropyl-5-((2-fluoro-4-iodophenyl)amino)-6,8-dimethyl-2,4,7-trioxo-3,4,6,7-tetrahydropyrido[4,3-d]pyrimidin-1(2H)-yl)phenoxy)acetamide]	0.03			
Cc1c(=O)n(C)c(Nc2ccc(I)cc2F)c2c(=O)n(C(C)C)c(=O)n(-c3cccc(C(=O)NC4CC4)c3)c12 [Compound 69, N-cyclopropyl-3-(5-((2-fluoro-4-iodophenyl)amino)-3-isopropyl-6,8-dimethyl-2,4,7-trioxo-3,4,6,7-tetrahydropyrido[4,3-d]pyrimidin-1(2H)-yl)benzamide]	> 100			
Cc1c(=O)n(C)c(Nc2ccc(I)cc2F)c2c(=O)[nH]c(=O)n(-c3cccc(C(C)(C)C(N)=O)c3)c12 [Compound 9, 2-(3-(5-((2-fluoro-4-iodophenyl)amino)-6,8-dimethyl-2,4,7-trioxo-3,4,6,7-tetrahydropyrido[4,3-d]pyrimidin-1(2H)-yl)phenyl)-2-methylpropanamide]	0.1 to 0.9			
Cc1c(=O)n(C)c(Nc2ccc(I)cc2F)c2c(=O)n(C)c(=O)n(-c3cccc(CC(N)=O)c3)c12 [Compound 42, 2-(3-(5-((2-fluoro-4-iodophenyl)amino)-3,6,8-trimethyl-2,4,7-trioxo-3,4,6,7-tetrahydropyrido[4,3-d]pyrimidin-1(2H)-yl)phenyl)acetamide]	0.1 to 0.9			
Cc1c(=O)n(C)c(Nc2ccc(I)cc2F)c2c(=O)[nH]c(=O)n(-c3cccc(C(=O)NC4(C(N)=O)CC4)c3)c12 [Compound 12, N-(1-carbamoylcyclopropyl)-3-(5-((2-fluoro-4-iodophenyl)amino)-6,8-dimethyl-2,4,7-trioxo-3,4,6,7-tetrahydropyrido[4,3-d]pyrimidin-1(2H)-yl)benzamide]	4 to 100			
Cc1c(=O)n(C)c(Nc2ccc(I)cc2F)c2c(=O)n(C)c(=O)n(-c3cccc(C(=O)NC4CCOC4)c3)c12 (stereo not shown) [Compound 51, 3-(5-((2-fluoro-4-iodophenyl)amino)-3,6,8-trimethyl-2,4,7-trioxo-3,4,6,7-tetrahydropyrido[4,3-d]pyrimidin-1(2H)-yl)-N-(tetrahydrofuran-3-yl)benzamide]	0.01			
Cc1c(=O)n(C)c(Nc2ccc(I)cc2F)c2c(=O)[nH]c(=O)n(-c3cccc(C(=O)NC4CCOCC4)c3)c12 [Compound 13, 3-(5-((2-fluoro-4-iodophenyl)amino)-6,8-dimethyl-2,4,7-trioxo-3,4,6,7-tetrahydropyrido[4,3-d]pyrimidin-1(2H)-yl)-N-(tetrahydro-2H-pyran-4-yl)benzamide]	0.01			
Cc1c(=O)n(C)c(Nc2ccc(I)cc2F)c2c(=O)[nH]c(=O)n(-c3cccc(C(=O)N4CCN(C)CC4)c3)c12 [Compound 21, 5-((2-fluoro-4-iodophenyl)amino)-6,8-dimethyl-1-(3-(4-methylpiperazine-1-carbonyl)phenyl)pyrido[4,3-d]pyrimidine-2,4,7(1H,3H,6H)-trione]	0.1 to 0.9			
Cc1c(=O)n(C)c(Nc2ccc(I)cc2F)c2c(=O)n(C)c(=O)n(-c3cccc(CC(=O)NC4CC4)c3)c12 [Compound 58, N-cyclopropyl-2-(3-(5-((2-fluoro-4-iodophenyl)amino)-3,6,8-trimethyl-2,4,7-trioxo-3,4,6,7-tetrahydropyrido[4,3-d]pyrimidin-1(2H)-yl)phenyl)acetamide]	1 to 3			
Cc1c(=O)n(C)c(Nc2ccc(I)cc2F)c2c(=O)n(C)c(=O)n(-c3cccc(C(C)(C)C(N)=O)c3)c12 [Compound 43, 2-(3-(5-((2-fluoro-4-iodophenyl)amino)-3,6,8-trimethyl-2,4,7-trioxo-3,4,6,7-tetra hydropyrido[4,3-d]pyrimidin-1(2H)-yl)phenyl)-2-methylpropanamide]	0.1 to 0.9			
Cc1c(=O)n(C)c(Nc2ccc(I)cc2F)c2c(=O)[nH]c(=O)n(-c3cccc(OCC(=O)NC4CC4)c3)c12 [Compound 6, N-cyclopropyl-2-(3-(5-((2-fluoro-4-iodophenyl)amino)-6,8-dimethyl-2,4,7-trioxo-3,4,6,7-tetrahydropyrido[4,3-d]pyrimidin-1(2H)-yl)phenoxy)acetamide]	0.01			
Cc1c(=O)n(C)c(Nc2ccc(I)cc2F)c2c(=O)n(CC(O)CO)c(=O)n(-c3cccc(C(=O)NC4CC4)c3)c12 (stereo not shown) [Compound 73, N-cyclopropyl-3-(3-(2,3-dihydroxypropyl)-5-((2-fluoro-4-iodophenyl)amino)-6,8-dimethyl-2,4,7-trioxo-3,4,6,7-tetrahydropyrido[4,3-d]pyrimidin-1 (2H)-yl)benzamide]	4 to 100			
Cc1c(=O)n(C)c(Nc2ccc(I)cc2F)c2c(=O)[nH]c(=O)n(-c3cccc(C(=O)N4CCS(=O)(=O)CC4)c3)c12 [Compound 8, 1-(3-(1,1-dioxidothiomorpholine-4-carbonyl)phenyl)-5-((2-fluoro-4-iodophenyl)amino)-6,8-dimethylpyrido[4,3-d]pyrimidine-2,4,7(1H,3H,6H)-trione]	1 to 3			
Cc1c(=O)n(C)c(Nc2ccc(I)cc2F)c2c(=O)n(C)c(=O)n(-c3cccc(C(=O)NC4CCOCC4)c3)c12 [Compound 52, 3-(5-((2-fluoro-4-iodophenyl)amino)-3,6,8-trimethyl-2,4,7-trioxo-3,4,6,7-tetrahydropyrido[4,3-d]pyrimidin-1(2H)-yl)-N-(tetrahydro-2H-pyran-4-yl)benzamide]	4 to 100			
Cc1c(=O)n(C)c(Nc2ccc(I)cc2F)c2c(=O)n(C)c(=O)n(-c3cccc(C4(C(N)=O)CC4)c3)c12 [Compound 79, 1-(3-(5-((2-fluoro-4-iodophenyl)amino)-3,6,8-trimethyl-2,4,7-trioxo-3,4,6,7-tetrahydropyrido[4,3-d]pyrimidin-1(2H)-yl)phenyl)cyclopropanecarboxamide]	4 to 100			
Cc1c(=O)n(C)c(Nc2ccc(I)cc2F)c2c(=O)n(C3CC3)c(=O)n(-c3cccc(C(=O)N4CCS(=O)(=O)CC4)c3)c12 [Compound 39, 3-cyclopropyl-1-(3-(1,1-dioxidothiomorpholine-4-carbonyl)phenyl)-5-((2-fluoro-4-iodophenyl)amino)-6,8-dimethylpyrido[4,3-d]pyrimidine-2,4,7(1H,3H,6H)-trione]	1 to 3			
Cc1c(=O)n(C)c(Nc2ccc(I)cc2F)c2c(=O)n(C3COC3)c(=O)n(-c3cccc(OCC(N)=O)c3)c12 [Compound 71, 2-(3-(5-((2-fluoro-4-iodophenyl)amino)-6,8-dimethyl-3-(oxetan-3-yl)-2,4,7-trioxo-3,4,6,7-tetrahydropyrido[4,3-d]pyrimidin-1(2H)-yl)phenoxy)acetamide]	4 to 100			
Cc1c(=O)n(C)c(Nc2ccc(I)cc2F)c2c(=O)n(C)c(=O)n(-c3cccc([C@H](O)C(N)=O)c3)c12 [Compound 76, (S)-2-(3-(5-((2-fluoro-4-iodophenyl)amino)-3,6,8-trimethyl-2,4,7-trioxo-3,4,6,7-tetrahydropyrido[4,3-d]pyrimidin-1(2H)-yl)phenyl)-2-hydroxyacetamide]	4 to 100			
Cc1c(=O)n(C)c(Nc2ccc(I)cc2F)c2c(=O)[nH]c(=O)n(-c3cccc(C(=O)N4CCC(O)C4)c3)c12 (stereo not shown) [Compound 22, 5-((2-fluoro-4-iodophenyl)amino)-1-(3-(3-hydroxypyrrolidine-1-carbonyl)phenyl)-6,8-dimethylpyrido[4,3-d]pyrimidine-2,4,7(1H,3H,6H)-trione]	4 to 100			
